Like-named read-outs stand apart in the source and are kept apart here.
Columns and labels:
[1] = molecular target: T1, Human lysosome α-galactosidase (Homo sapiens, UniProt P06280); experiment: In vitro enzyme inhibition; type: biochemical; details: concentration required to inhibit the enzyme to 50% activity; read-out: IC50
T1 sequence (P06280 32-429): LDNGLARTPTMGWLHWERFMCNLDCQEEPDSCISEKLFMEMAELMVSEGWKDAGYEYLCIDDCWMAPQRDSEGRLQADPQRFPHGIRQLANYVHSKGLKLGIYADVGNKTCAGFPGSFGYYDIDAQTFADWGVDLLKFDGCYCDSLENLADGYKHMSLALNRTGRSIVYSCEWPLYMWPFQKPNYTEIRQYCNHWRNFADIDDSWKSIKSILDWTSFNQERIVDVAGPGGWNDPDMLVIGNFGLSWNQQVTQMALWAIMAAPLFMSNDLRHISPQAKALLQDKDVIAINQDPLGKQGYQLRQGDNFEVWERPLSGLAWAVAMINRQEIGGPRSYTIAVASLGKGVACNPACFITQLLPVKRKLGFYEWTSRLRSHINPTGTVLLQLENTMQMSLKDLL

[2] = system: lysosomal β-N-acetylhexosaminidase; experiment: Free oligosaccharide analysis in MDMΦs: hexosaminidase-related FOS; type: cell-based, human; details: MNTD, 48 h
Procedure: MDMΦ were infected with DENV2 16681 diluted to a multiplicity of infection (MOI) of 1 in X-VIVO10 without supplements for 90 minutes (20°C, with rocking). Upon removal of virus, fresh MDMΦ growth medium without IL-4 but containing serial dilutions of drug or control was placed on the cells, and cells were incubated for 48 hours (37°C, 5% CO2). For collection of infectious virus, supernatant was harvested and centrifuged for 5 minutes (room temperature, 400 x g) to pellet any cells/debris, and supernatants were aliquoted and stored at -80°C until analysis by plaque assay. In the case of FOS and GSL assays where MDMΦ were uninfected, treatments were essentially as above except that no virus was added and cells were washed three times with sterile PBS after 24 or 48 hours as per sample time point. […]
MDMΦ FOS were detected as previously described by Alonzi et al.. […] Glycans were separated by normal phase-high performance liquid chromatography (NP-HPLC), and peak area was used to assess molar quantity in comparison to standards of known identity and quantity. […] Absorbance values (Axxx) at 595 nm and 420 nm were measured, and the ratio of A595 to A420 was used to determine protein concentration in comparison to a serially diluted standard of bovine serum albumin.

[3] = system: DENV2 strain 16681; experiment: In vitro antiviral assay: infectious DENV titer from infected MDMΦs by LLC-MK2 plaque assay; type: cell-based, dengue virus serotype 2
[4] = Dengue virus, DENV2, LLC-MK2, 48 h, MDMΦs infected with DENV2 MOI 1, drug 48 h, infectious titer by plaque assay, table values with 95% confidence interval in parentheses, read-out: EC50

| SMILES | IC50 [1] [µM] | FOS generated by inhibition of lysosomal β-N-acetylhexosaminidase [2] | EC50 [3, 4] [µM] | Enhancement (fold improvement of antiviral EC50 versus parent compound) ([3]; EC50 parent / EC50 derivative, parent DNJ or castanospermine) [fold] | EC50 ([3]; MDMΦs infected with DENV2 MOI 1, drug 48 h, infectious titer by plaque assay, table values with 95% confidence interval in parentheses, read-out: EC50) [µM] | EC50 ([3]; Dengue virus, DENV2, LLC-MK2, 48 h, MDMΦs, DENV2, 48 h, read-out: 95% CI for antiviral EC50) [µM] |
| --- | --- | --- | --- | --- | --- | --- |
| CCCCCCCCCN1C[C@H](O)[C@@H](O)[C@@H](O)[C@H]1CO [NN-DGJ] | 35.5 | do produce FOS generated by inhibition of lysosomal β-N-acetylhexosaminidase |  |  |  |  |
| CCCC(=O)O[C@H]1CN2CC[C@H](O)[C@@H]2[C@@H](O)[C@@H]1O [Celgosivir, 6-O-butanoyl-castanospermine] | > 1000 |  | 5 | 7 | 5.17 |  |
| CCCCN1C[C@H](O)[C@@H](O)[C@H](O)[C@H]1CO [NB-DNJ, N-butyl-DNJ] |  |  | 10.6 |  |  | 7.77 to 14.5 |
| CCCCN1C[C@H](O)[C@@H](O)[C@@H](O)[C@H]1CO [NB-DGJ] |  | do produce FOS generated by inhibition of lysosomal β-N-acetylhexosaminidase |  |  |  |  |
